Laboratory results published in PMC7764243, “Alterins Produced by Oyster-Associated Pseudoalteromonas Are Antibacterial Cyclolipopeptides with LPS-Binding Activity” (Marine Drugs, 2020).
Converted amounts (≈) assume the structure as drawn. Read-outs that look alike come from different tables or passages of the source. *1 amine or outer side, *2 acyl side, *3 side chain or, on linkers, in order; H or OH if unused. Where a SMILES comes first, the peptide text is derived from it. Bridges are numbered along the chain shown (N, C = ends). [ ]: non-standard residue; d: D form. The star is where a group is joined. ξ: configuration not given here. Dab(3ξ-OH) = O=C([C@@H](N[*:1])C(O)CN[*:3])[*:2]; X1 = C/C=C(/N[*:1])C(=O)[*:2]; Lauroyl = CCCCCCCCCCCC(=O)*; Decanoyl = CCCCCCCCCC(=O)*; Dab = NCC[C@H](N)C(=O)O

What was measured:
Y. ruckeri ATCC 29473 = type: cell-based, Yersinia ruckeri
Method: (§1) Antibacterial activity was assayed against a panel of micro-organisms including human and aquaculture pathogenic bacterial species. MICs were performed and defined according to internationally recognized standards (CLSI [21]). Polymyxin B (PMB), an antibiotic CLP produced by Paenibacillus polymyxa, was used as positive control. The major produced alterins, i.e., alt_952, alt_954, alt_970 and alt_980 were assayed against the whole panel of target cells while the minor ones were only tested against a few bacterial strains (Table 2).
(§2) The bacterial strains Aeromonas caviae CIP 7616, Aeromonas hydrophila CIP 7614, Escherichia coli ML35, Escherichia coli SBS 363, Salmonella enterica CIP 8297 and Yersinia ruckeri ATCC 29473 were grown in Tryptic Soy Broth. The marine bacterial strains Vibrio crassostreaeJ2–9, Vibrio tasmaniensisLGP32, Vibrio tapetis CECT 4600 were grown in Marine Broth. All of them were cultivated at optimal temperature according to ATCC and CIP specifications. The strain Vibrio parahaemolyticus13-028A/3 was grown at 28 °C in Tryptic Soy Broth supplemented in NaCl (20 g.L^−1) according to [47]. The strains Pseudoalteromonas sp. hCg-6 and hCg-42 were cultured using a synthetic medium containing: 17.11 g sucrose, 30 g sea salts (Sigma-S9883), 7.6 g K2HPO4, 3 g KH2PO4 and 20 mL MEM 50X (Dulbecco) per liter. The cultures were grown at 18 °C for 72 h with shaking (100 rpm).
(§3) MICs were determined using broth microdilution method according to [21]. To resume, antibacterial compounds ranging from 0.1 to 100 µM were assayed against the target bacteria in mid-logarithmic phase culture (1.10^6 UFC.mL^−1) in adapted culture medium according to the strain. MICs were examined by unaided eye after a 48h-incubation time at the optimal temperature growth. The lipopeptide PMB (Sigma-P4932) was used as antibiotic control.

V. tapetis CECT 4600T = type: cell-based, Vibrio tapetis; settings: V. tapetis CECT 4600T; broth microdilution, 0.1 to 100 µM, 1.10^6 UFC/mL, 48 h, read by unaided eye
Method: as §1, §2, §3

S. enterica CIP 8297 = type: cell-based, Salmonella enterica; settings: broth microdilution, 0.1 to 100 µM, 1.10^6 UFC/mL, 48 h, read by unaided eye
Method: as §1, §2, §3

P. aeruginosa ATCC 27853 = type: cell-based, Pseudomonas aeruginosa; settings: P. aeruginosa ATCC 27853; broth microdilution, 0.1 to 100 µM, 1.10^6 UFC/mL, 48 h, read by unaided eye
Method: as §1, §3

E. coli SBS363 = type: cell-based, Escherichia coli; settings: E. coli SBS363 (short-chain LPS); broth microdilution, 0.1 to 100 µM, 1.10^6 UFC/mL, 48 h, read by unaided eye
Method: as §1, §2, §3

E. coli ML35 = type: cell-based, Escherichia coli; settings: E. coli ML35 (long-chain LPS); broth microdilution, 0.1 to 100 µM, 1.10^6 UFC/mL, 48 h, read by unaided eye
Method: as §1, §2, §3

A. hydrophila CIP 7614 = type: cell-based, Aeromonas hydrophila; settings: A. hydrophila CIP 7614; broth microdilution, 0.1 to 100 µM, 1.10^6 UFC/mL, 48 h, read by unaided eye
Method: as §1, §2, §3

A. caviae CIP 7616 = type: cell-based, Aeromonas caviae; settings: broth microdilution, 0.1 to 100 µM, 1.10^6 UFC/mL, 48 h, read by unaided eye
Method: as §1, §2, §3

Pseudoalteromonas hCg-6 = type: cell-based, Pseudoalteromonas sp.; settings: Pseudoalteromonas hCg-6 (producing strain); broth microdilution, 0.1 to 100 µM, 1.10^6 UFC/mL, 48 h, read by unaided eye
Method: as §1, §2, §3

Pseudoalteromonas hCg-42 = type: cell-based, Pseudoalteromonas sp.; settings: Pseudoalteromonas hCg-42 (producing strain); broth microdilution, 0.1 to 100 µM, 1.10^6 UFC/mL, 48 h, read by unaided eye
Method: as §1, §2, §3

V. tasmaniensis LGP32 = experiment: Viability (cultivability, CFU count) in seawater; type: cell-based, Vibrio tasmaniensis; settings: 20 µM, 4 h incubation in sterile seawater, inoculum 1.10^6 UFC/mL, plated in duplicate
Method: As a first step, we have measured the antimicrobial activity of alt_952, alt_954, alt_970 and alt_980 against V. tasmaniensis LGP32 in seawater after a 4 hour-long incubation. […] The effects on membrane were also investigated under the same experimental conditions using live/dead bacterial viability kit for flow cytometry (Figure 6). A net cultivability loss of V. tasmaniensis (2-log reduction) was observed when incubated with alt_954 and alt_980 indicative of a bactericidal effect (Figure 7A). In these conditions, V. tasmaniensis was much less affected by alt_970 (1-log reduction) and not by alt_952 (Figure 7A).
[…] After a 4 h-long incubation, viable bacteria were counted. Diluted samples (50 µL) in sterile seawater were spread in duplicate on appropriate medium. Cultivable bacterial concentration (CFU mL^−1) was determined after overnight incubation at optimal growth temperature.

[1] = system: V. parahaemolyticus 13-028A/3; type: cell-based, Vibrio parahaemolyticus; settings: broth microdilution, 0.1 to 100 µM, 1.10^6 UFC/mL, 48 h, read by unaided eye
Method: as §1, §2, §3

V. tasmaniensis LGP 32 = type: cell-based, Vibrio tasmaniensis; settings: V. tasmaniensis LGP 32; broth microdilution, 0.1 to 100 µM, 1.10^6 UFC/mL, 48 h, read by unaided eye
Method: as §1, §2, §3

[2] = LPS binding, QCL-1000 chromogenic Limulus Amoebocyte Lysate (LAL) assay; set-up: species or system Escherichia coli; settings: LPS 1 EU/mL pre-incubated with CLPs 0.01 to 10 µM, 15 min, 37 °C
Description: To gain insights into LPS-alterin interactions, we used an endotoxin detection assay, the QCL-1000^TM Endpoint chromogenic Limulus Amoebocyte Lysate (LAL) assay (Lonza). We compared alt_954, alt_970 and alt_980 for their ability to bind LPS from E. coli O111:B4. All alterins bound to LPS in a dose-dependent manner, as indicated by the reduction of biologically active LPS with increasing alterins concentrations (Figure 4A). […] To examine alterin LPS-binding properties in more detail, we performed a surface plasmon resonance (SPR) assay using the Biacore technology (GE Healthcare). The SPR binding measurements were performed using the alt_954 and alt_970. PMB was used as a positive control. The CLPs were immobilized to a CM5 sensor chip surface and titrated with LPS. […] The dose-dependent effect observed (Figure 4B) highlights the LPS-binding properties of the alterins. Both LPS-binding assays, i.e., LAL and SPR, are fully agreeing for alt_954. Moreover, the LPS-binding properties of alterins followed the same general pattern as that of antibacterial activity.
The CLPs were assayed for their LPS-binding properties by using the QCL-1000 Limulus Amoebocyte Lysate kit (LAL-Lonza, Bâle, Switzerland) according to manufacturer instructions. […] Free LPS was then quantified according to the manufacturer’s instructions. […]

V. harveyi ORM4 = type: cell-based, Vibrio harveyi; settings: V. harveyi ORM4; broth microdilution, 0.1 to 100 µM, 1.10^6 UFC/mL, 48 h, read by unaided eye
Method: as §1, §3

[3] = Y. ruckeri ATCC 29473, broth microdilution, 0.1 to 100 µM, 1.10^6 UFC/mL, 48 h, read by unaided eye

Compound | MIC (Y. ruckeri ATCC 29473; [3]) | MIC (V. tapetis CECT 4600T) | MIC (S. enterica CIP 8297) | MIC (P. aeruginosa ATCC 27853) | MIC (E. coli SBS363) | MIC (E. coli ML35) | MIC (A. hydrophila CIP 7614) | MIC (A. caviae CIP 7616) | MIC (Pseudoalteromonas hCg-6) | MIC (Pseudoalteromonas hCg-42) | cultivability loss of V. tasmaniensis (log reduction of CFU) (V. tasmaniensis LGP32) | MIC [1] | MIC (V. tasmaniensis LGP 32) | LPS binding (reduction of biologically active LPS, LAL assay) [2] | MIC (V. harveyi ORM4) | MIC (Y. ruckeri ATCC 29473; ATCC 29473, 48 h)
C/C=C1/NC(=O)[C@@H](NC(=O)CCCCCCCCC)C(O)CNC(=O)[C@H](C(O)CN)NC(=O)[C@H](C(O)CN)NC(=O)[C@H](CCCNC(=N)N)NC(=O)[C@H](CC(C)C)NC(=O)[C@H](CCN)NC1=O (stereo partly drawn) [alt_954] (Decanoyl-[Dab(3ξ-OH)][X1][Dab]LR[Dab(3ξ-OH)][Dab(3ξ-OH)]; lactam 1-C) | 0.3 µM (≈ 0.287 µg/mL) | >100 µM | 0.7 µM (≈ 0.669 µg/mL) | 22 µM (≈ 21 µg/mL) | 0.2 µM (≈ 0.191 µg/mL) | 1.4 µM (≈ 1.34 µg/mL) | 2.7 µM (≈ 2.58 µg/mL) | 5.5 µM (≈ 5.25 µg/mL) | >100 µM | >100 µM | 2 log | 6.25 µM (≈ 5.97 µg/mL) | 2.7 µM (≈ 2.58 µg/mL) | more efficiently than alt_970 | 1.4 µM (≈ 1.34 µg/mL) | 
C/C=C1/NC(=O)[C@@H](NC(=O)CCCCCCCCCCC)C(O)CNC(=O)[C@H](C(O)CN)NC(=O)[C@H](C(O)CN)NC(=O)[C@H](CCCNC(=N)N)NC(=O)[C@H](CC(C)C)NC(=O)[C@H](CCN)NC1=O (stereo partly drawn) [alt_982] (Lauroyl-[Dab(3ξ-OH)][X1][Dab]LR[Dab(3ξ-OH)][Dab(3ξ-OH)]; lactam 1-C) |  |  |  |  | 6.3 µM (≈ 6.19 µg/mL) |  |  |  |  |  |  |  |  |  |  | 12.5 µM (≈ 12.3 µg/mL)
Polymyxin B [PMB, reference compound] | 0.4 µM | >100 µM | 0.8 µM | 1.6 µM | 0.2 µM | 3.1 µM | 0.8 µM | 3.1 µM | >100 µM | >100 µM |  | >100 µM | 3 µM |  | 25 µM | 
